In US20260015360A1 (MOMA Therapeutics, Inc., priority 2023, published 2026):
Like-named read-outs stand apart in the source and are kept apart here.

What was measured:
[1] = biological target: T1, biotinylated Avi-POLΘ[2-894] (Homo sapiens, UniProt O75417); experiment: ATPase assay (ADP-Glo): POLΘ-mediated ATP hydrolysis; conditions: read-out: Biochemical ATPase ADPGlo IC50
T1 construct: 1 nM biotinylated Avi-POLΘ[2-894]

DLD1 BRCA2 (−/−) cells = experiment: DLD1 viability assay (CellTiter-Glo, 7 days), DLD1 BRCA2 (−/−); assay type: cell-based; conditions: read-out: Viability IC50 (μM) DLD1 BRCA2 null
DLD1 WT cells = experiment: DLD1 viability assay (CellTiter-Glo, 7 days), DLD1 WT; assay type: cell-based

T1 sequence (O75417 2-894 limits assumed): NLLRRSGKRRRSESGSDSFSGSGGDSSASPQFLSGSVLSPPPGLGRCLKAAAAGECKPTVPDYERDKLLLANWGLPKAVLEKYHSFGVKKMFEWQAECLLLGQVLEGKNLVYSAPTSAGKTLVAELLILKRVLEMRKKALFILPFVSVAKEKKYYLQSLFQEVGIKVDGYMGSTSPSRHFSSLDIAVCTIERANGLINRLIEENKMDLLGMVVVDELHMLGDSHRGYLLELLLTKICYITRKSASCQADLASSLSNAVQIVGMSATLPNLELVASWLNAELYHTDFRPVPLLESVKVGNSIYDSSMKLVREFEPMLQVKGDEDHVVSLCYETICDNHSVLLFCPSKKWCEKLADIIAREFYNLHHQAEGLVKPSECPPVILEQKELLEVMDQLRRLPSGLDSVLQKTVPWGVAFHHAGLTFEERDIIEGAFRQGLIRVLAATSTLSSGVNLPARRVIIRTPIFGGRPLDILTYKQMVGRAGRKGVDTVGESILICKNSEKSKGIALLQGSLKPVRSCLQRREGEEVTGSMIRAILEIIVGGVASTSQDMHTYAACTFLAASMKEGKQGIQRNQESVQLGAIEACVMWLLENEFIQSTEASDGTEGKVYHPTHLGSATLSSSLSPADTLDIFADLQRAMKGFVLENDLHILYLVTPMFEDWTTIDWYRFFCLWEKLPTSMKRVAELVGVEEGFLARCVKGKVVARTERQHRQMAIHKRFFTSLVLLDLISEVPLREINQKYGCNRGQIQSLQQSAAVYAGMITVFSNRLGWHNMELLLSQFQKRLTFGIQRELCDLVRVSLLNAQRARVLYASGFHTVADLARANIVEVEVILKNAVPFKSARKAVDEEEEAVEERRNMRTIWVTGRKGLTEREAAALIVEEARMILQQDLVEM

SMILES	IC50 [1]	IC50 (DLD1 BRCA2 (−/−) cells; Homo sapiens, DLD-1, 168 h)	IC50 (DLD1 WT cells; Homo sapiens, DLD-1, 168 h)	IC50 (DLD1 BRCA2 (−/−) cells)	IC50 (DLD1 WT cells)
COc1cnc(Cl)cc1-c1cc(C)ncc1C(=O)Nc1nn2cc(C(=O)N[C@H]3C[C@@H](O)C3)nc2s1 [Example 308]	1 to 15 nM	> 2 µM	> 10 µM	–	–
COc1ccccc1-c1cc(C)ncc1C(=O)Nc1nc2ncc(-c3ccnc(C)c3)cc2s1 [Example 87]	1 to 15 nM	0.25 to 0.5 µM	> 10 µM	–	–
COc1cnc(Cl)cc1-c1cc(C)ncc1C(=O)Nc1nc2ncc(N3CCC(C)(O)CC3)nc2s1 [Example 509, 2′-chloro-N-(6-(4-hydroxy-4-methylpiperidin-1-yl)thiazolo[4,5-b]pyrazin-2-yl)-5′-methoxy-6-methyl-[4,4′-bipyridine]-3-carboxamide]	1 to 15 nM	0.001 to 0.1 µM	> 10 µM	–	–
COc1cnc(Cl)cc1-c1cc(C)ncc1C(=O)Nc1nc2ncc(C3CCOC3)cc2s1 (single isomer, unassigned) [Example 515, (R or S)-2′-chloro-5′-methoxy-6-methyl-N-(6-(tetrahydrofuran-3-yl)thiazolo[4,5-b]pyridin-2-yl)-[4,4′-bipyridine]-3-carboxamide]	1 to 15 nM	0.1 to 0.25 µM	> 10 µM	–	–
COc1cnc(Cl)cc1-c1cc(C)ncc1C(=O)Nc1nc2ncc(N3CCC(O)(C(F)(F)F)CC3)nc2s1 [Example 511, 2′-chloro-N-(6-(4-hydroxy-4-(trifluoromethyl)piperidin-1-yl)thiazolo[4,5-b]pyrazin-2-yl)-5′-methoxy-6-methyl-[4,4′-bipyridine]-3-carboxamide]	1 to 15 nM	0.001 to 0.1 µM	2.5 to 5 µM	–	–
COc1cnc(Cl)cc1-c1cc(C)ncc1C(=O)Nc1nc2ncc([C@H]3CC[C@H](C#N)CC3)nc2s1 [Example 454, 2′-chloro-N-(6-((1r,4r)-4-cyanocyclohexyl)thiazolo[4,5-b]pyrazin-2-yl)-5′-methoxy-6-methyl-[4,4′-bipyridine]-3-carboxamide]	1 to 15 nM	0.001 to 0.1 µM	> 10 µM	–	–
COc1cnc(Cl)cc1-c1cc(C)ncc1C(=O)Nc1nn2cc(C(=O)N[C@@H]3CCCC[C@@H]3O)nc2s1 [Example 22]	1 to 15 nM	–	–	> 2 µM	> 10 µM
